For one data set, the system named is Human Hepatocytes. The experiment in a line: In vitro conversion of prodrug to nucleoside triphosphate (NTP) in human hepatocytes. In kind it is in vitro ADME. To be noted: 1 hour at 10 μM prodrug, intracellular NTP. As to the method:
The degree of conversion of a prodrug compound of the present invention to its corresponding nucleoside triphosphate (NTP) can be measured in vitro using the procedure described below.
A 2 mM stock solution of the prodrug test compound is prepared in 5% DMSO/95% MeOH to provide a final sample concentration of […]. A 5 μL aliquot is removed from this stock solution and added to 1 mL of either a rat or human cryopreserved hepatocyte sample to provide a control sample at concentration of 1 million cells/mL. This sample is assayed in triplicate and used as a test sample.
Human and rat hepatocytes are removed from liquid nitrogen storage and thawed by submerging the hepatocyte tube into a pre-heated 37° C. waterbath and gently shaking the tube back & forth until thawed. The thawed hepatocytes are then gently poured into a container of Hepatocyte Basal Medium (50 mL, pre-warmed to 37° C.) and washed. The hepatocyte tube is then rinsed out with pre-warmed Hepatocyte Basal Medium and the washed hepatocytes and rinse are combined and centrifuged at 500 rpm for 4 minutes at room temperature. The supernatant is then discarded and the resulting hepatocyte pellet is resuspended with Hepatocyte Basal Medium (pre-warmed to 37° C.) and the final hepatocyte concentration is adjusted to 1 million cells/mL to provide the final hepatocyte suspension.
A 1 mL aliquot is removed from the 1 million cells/mL final hepatocyte suspension, analyzed in triplicate and placed into 20 mL scintillation vial without a cap. 2 mM of the prodrug test sample is then added into the hepatocyte suspension to provide a 10 μM final concentration in the 1 mL hepatocyte sample. […]
The incubated hepatocyte suspension samples are transferred to a microcentrifuge tube using a transfer pipette and centrifuged at 500 rpm for 4 minutes at room temperature. […] The resulting extract solution is then stored in a refrigerator at 4° C. until ready for use, at which point the sample is first subjected to vortexing/sonication to ensure that all hepatocyte cells have burst. […]

The next data set concerns HuH-1 cells. Nature of the data set: In vitro inhibition of HuH-1 cells (MTT proliferation assay). The data set is classed as cell-based. The note with it: 72 h incubation, absorbance 570 nm, read-out: HuH-1: Relative IC50. As to the method: (§1) The compounds of the invention were tested in cell based in vitro assays comprising HuH-1 cells and HepG2 cells, as in vitro models for potential hepatocellular carcinoma activity.
(§2) HuH-1 cells were purchased from JCRB, HepG2 cells from ATCC, and both tested with the following method:
(§3) Cells are suspended at a specific density in a specific culture medium. Then, 100 μl of cell suspension are plated per well in 96-well plates.
(§4) Compounds or negative controls (DMSO) are added to the cells (100 μl of a compound solution in its specific medium with a final concentration of 0.15% DMSO). Each compound concentration is tested in duplicate (6 concentrations per compound). Cells are incubated at 37° C. for 72 h without treating again.
(§5) SDS is added to control wells (final concentration of 1%) and kept for 15 min at 37° C. SDS 1% represents the positive control of proliferation inhibition. Cell supernatant is removed and 100 μl of a MTT (3-[4.5-dimethylthiazol-2-yl]-2.5-diphenyltetrazolium bromide) solution in fresh medium are added per well (MTT final concentration of 0.5 mg/ml) and incubated for 4 h at 37° C. MTT reaction is stopped and homogenized by adding 100 μl/well of SDS 10%, 0.01M HCl and incubated for 2 h at 37° C. Absorbance is measured at 570 nm.
In general terms: Tetrazolium dyes change colour on reduction, which living cells bring about.

The subject of another data set is HepG2 cells. The experiment in a line: In vitro inhibition of HepG2 cells (MTT proliferation assay). The data set is classed as cell-based. The note with it: 72 h incubation, absorbance 570 nm, read-out: HepG2: Relative IC50. As to the method: as §1, §2, §3, §4, §5

Read-outs that look alike come from different tables or passages of the source.

For the compound `CCOC(=O)[C@H](C)CCOP1(=O)OC[C@H]2S[C@@H](n3ccc(N)nc3=O)[C@@H](F)[C@@H]2O1` (single isomer, unassigned) [Compound 1 Diastereoisomer 2], the “Human Hepatocyte 1 hour at 10 μM, NTP” value in the data set on Human Hepatocytes was “A (A=<0.5 μM)”.
Still for that read-out and setting: the same measure for `CC(C)OC(=O)[C@H](C)CCOP1(=O)OC[C@H]2O[C@@H](n3ccc(NC(=O)c4ccccc4)nc3=O)C(F)(F)[C@@H]2O1` (stereo partly drawn) [Compound 10, Isopropyl (2R)-4-(((4aR,6R,7aR)-6-(4-benzamido-2-oxopyrimidin-1(2H)-yl)-7,7-difluoro-2-oxidotetrahydro-4H-furo[3,2-d][1,3,2]dioxaphosphinin-2-yl)oxy)-2-methylbutanoate]: “C (C=≥1 μM)”.
As to `CC(C)OC(=O)C(C)CCOP1(=O)OC[C@H]2O[C@@H](n3cc(C(F)(F)F)c(=O)[nH]c3=O)C[C@@H]2O1` (mixture of isomers) [Mixture 6A/6B, Isopropyl 4-(((2S,4aR,6R,7aS)-6-(2,4-dioxo-5-(trifluoromethyl)-3,4-dihydropyrimidin-1 (2H)-yl)-2-oxidotetrahydro-4H-furo[3,2-d][1,3,2]dioxaphosphinin-2-yl)oxy)-2-methylbutanoate and Isopropyl 4-(((2R,4aR,6R,7aS)-6-(2,4-dioxo-5-(trifluoromethyl)-3,4-dihydropyrimidin-1 (2H)-yl)-2-oxidotetrahydro-4H-furo[3,2-d][1,3,2]dioxaphosphinin-2-yl)oxy)-2-methylbutanoate], the concentration for half-maximal inhibition (IC50) in the data set with HuH-1 cells (Homo sapiens) and in the data set on HepG2 cells (Homo sapiens) was ≥ 5000 nM each time.
For `COc1nc(N)nc2c1ncn2[C@@H]1O[C@@H]2COP(=O)(OCC[C@@H](C)C(=O)OC(C)C)O[C@H]2[C@@H]1O` (mixture of isomers) [Mixture 5A/5B, Isopropyl (R)-4-(((2S,4aR,6R,7S,7aS)-6-(2-amino-6-methoxy-9H-purin-9-yl)-7-hydroxy-2-oxidotetrahydro-4H-furo[3,2-d][1,3,2]dioxaphosphinin-2-yl)oxy)-2-methylbutanoate and Isopropyl (R)-4-(((2R,4aR,6R,7S,7aS)-6-(2-amino-6-methoxy-9H-purin-9-yl)-7-hydroxy-2-oxidotetrahydro-4H-furo[3,2-d][1,3,2]dioxaphosphinin-2-yl)oxy)-2-methylbutanoate], the IC50 in the data set with HuH-1 cells (Homo sapiens) and with HepG2 cells (Homo sapiens) was ≥ 5000 nM each time.
Turning to `CC(C)OC(=O)[C@@H](C)CCO[P@@]1(=O)OC[C@H]2O[C@@H](n3cnc4c(N)nc(Cl)nc43)C[C@@H]2O1.CC(C)OC(=O)[C@@H](C)CCO[P@]1(=O)OC[C@H]2O[C@@H](n3cnc4c(N)nc(Cl)nc43)C[C@@H]2O1` (single isomer, unassigned; diastereoisomer 1) [Compound 3 Diastereoisomer 1], the IC50 in the data set with HuH-1 cells was 500 to 5000 nM; in the data set with HepG2 cells, < 500 nM.
For the compound `CC(C)OC(=O)[C@H](C)CCOP1(=O)OC[C@H]2S[C@@H](n3ccc(N)nc3=O)[C@@H](F)[C@@H]2O1` (single isomer, unassigned) [Compound 2 Diastereoisomer 1], the IC50 in the data set with HuH-1 cells (Homo sapiens) is < 500 nM.
In the case of `CCOC(=O)[C@H](C)CCOP1(=O)OC[C@H]2S[C@@H](n3ccc(N)nc3=O)[C@@H](F)[C@@H]2O1` (single isomer, unassigned) [Compound 1 Diastereoisomer 1], the IC50 with HuH-1 cells (Homo sapiens) is < 500 nM.
Take `CC(C)OC(=O)[C@H](C)CCOP1(=O)OC[C@H]2S[C@@H](n3ccc(N)nc3=O)[C@@H](F)[C@@H]2O1` (single isomer, unassigned) [Compound 2 Diastereoisomer 2]: the IC50 is < 500 nM with HuH-1 cells and 500 to 5000 nM in the data set with HepG2 cells (Homo sapiens). The “Human Hepatocyte 1 hour at 10 μM, NTP” value in the data set with Human Hepatocytes is on record as “A (A=<0.5 μM)”.

The term IC50 denotes the midpoint of a concentration-inhibition curve.

For the origin of these results see patent US20190365788A1, “CYCLIC PHOSPHATE SUBSTITUTED NUCLEOSIDE DERIVATIVES FOR THE TREATMENT OF LIVER DISEASES” (priority 2016, published 2019).
